Measurements: patent US12290513B2, “Therapeutic methods and compositions for treating movement disorders” (Vima Therapeutics, Inc., priority 2023, dated 2025)

Key:
[1] = Liver microsome stability, dog; conditions: for CLint scaled at 1 μM / microsomal CLint at 1 μM / half-life at 1 μM: liver microsomes; for CLint scaled at 1 μM: Scale-up CLint; for microsomal CLint at 1 μM: in vitro CLint; for half-life at 1 μM: in vitro t1/2, dog liver microsomes
Protocol: (§1) For the liver microsome assay: • 1. The master solution was prepared according to Table 3. All liver microsome samples were purchased from BD Gentest.
(§2) • 2. Two separate experiments were performed as follows: (i) With Cofactors (NADPH): 25 μL of 10 mM NADPH was added to the incubations. […] The reaction was started with the addition of 2.5 μL of 100 μM control compound or test compound solutions. […] Aliquots of 30 μL were taken from the reaction solution at 0.5, 5, 15, 30 and 60 minutes. The reaction was stopped by the addition of 5 volumes of cold acetonitrile with IS (100 nM alprazolam, 200 nM caffeine and 100 nM tolbutamide). Samples were centrifuged at 3,220 g for 40 minutes. Aliquots of 100 μL of the supernatant was mixed with 100 μL of ultra-pure H2O and then used for LC-MS/MS analysis to detect the levels of the test compound. • 5. All calculations were carried out using Microsoft Excel and according to standard analysis methods that are known in the art.

[2] = Liver microsome stability, rat; conditions: for CLint scaled at 1 μM / microsomal CLint at 1 μM / half-life at 1 μM: liver microsomes; for CLint scaled at 1 μM: Scale-up CLint; for microsomal CLint at 1 μM: in vitro CLint; for half-life at 1 μM: in vitro t1/2, rat liver microsomes
Protocol: as §1, §2

[3] = molecular target: CYP2C9 (Homo sapiens, UniProt P11712); assay: Incubation with recombinant CYP2C9; conditions: for t1/2: unit not given
Chain of CYP2C9 (P11712 whole entry): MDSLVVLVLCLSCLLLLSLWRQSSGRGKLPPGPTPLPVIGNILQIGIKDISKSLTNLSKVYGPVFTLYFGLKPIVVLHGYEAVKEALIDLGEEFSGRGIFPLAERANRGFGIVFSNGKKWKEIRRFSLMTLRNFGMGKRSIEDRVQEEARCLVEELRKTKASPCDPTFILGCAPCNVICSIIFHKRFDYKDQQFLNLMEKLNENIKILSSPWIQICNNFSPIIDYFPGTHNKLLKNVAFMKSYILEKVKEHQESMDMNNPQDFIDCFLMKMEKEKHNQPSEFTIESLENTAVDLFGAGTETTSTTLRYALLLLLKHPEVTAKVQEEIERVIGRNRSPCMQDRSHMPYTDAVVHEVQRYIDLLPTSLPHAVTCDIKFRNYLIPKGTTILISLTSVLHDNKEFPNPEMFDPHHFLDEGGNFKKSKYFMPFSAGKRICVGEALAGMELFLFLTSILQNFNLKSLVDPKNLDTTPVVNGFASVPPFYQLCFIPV

[4] = Hepatocyte stability, rat
Protocol: (§3) • 1. 10 mM stock solutions of test compounds and positive control compound were prepared in appropriate solvent (DMSO). • 2. In separate conical tubes, 10 mM test compound and positive controls were diluted to 100 μM by combining 198 μL of 50% acetonitrile/50% water and 2 μL of 10 mM stock. Preparation of Hepatocytes • 1. Incubation medium (William's E Medium supplemented with GlutaMAX) and hepatocyte thawing medium were placed in a 37C water bath and warmed for at least 15 minutes prior to use. • 2. A vial of cryopreserved hepatocytes was thawed by placing the vial in a 37C water bath and gently shaken for 2 minutes. After thawing was completed, the vial was cleaned with 70% ethanol and transferred to a biosafety cabinet. • 3. Using wide-bore pipette tips, hepatocytes were transferred into a 50 mL conical tube containing thawing medium. The 50 mL conical tube was placed into a centrifuge and spun at 100 g for 10 minutes. […] Using AO/PI Staining, cells were counted to determine the viable cell density. Cells were diluted with incubation medium to a working cell density of 0.5×10^6 viable cells/mL. Procedure for Stability Determination • 1. 198 μL of hepatocytes were pipetted into each well of a 96-well non-coated plate. The plate was placed in the incubator to allow the hepatocytes to warm for 10 minutes. • 2. 2 μL of the 100 μM test compound or positive control was pipetted into respective wells of the 96-well non-coated plate to start the reaction. The plate was returned to the incubator for the designed time points. • 3. The contents of the wells were removed in 25 μL aliquots at time points of 0.5, 15, 30, 60, 90 and 120 minutes. The aliquots were then mixed with 6 volumes (150 μL) of acetonitrile containing an internal standard, IS (100 nM alprazolam, 200 nM caffeine and 100 nM tolbutamide), to terminate the reaction. Samples were vortexed for 5 minutes and centrifuged for 45 minutes at 3,220 g. Aliquots of 100 μL of supernatant were diluted with 100 μL ultra-pure water, and the mixture was used for LC/MS/MS analysis. All incubations were performed in duplicate. Data Analysis
(§4) All calculations were carried out using Microsoft Excel and according to standard analysis methods that are known in the art.

[5] = molecular target: CYP3A4 (Homo sapiens, UniProt P08684); assay: Incubation with recombinant CYP3A4
Chain of CYP3A4 (P08684 whole entry): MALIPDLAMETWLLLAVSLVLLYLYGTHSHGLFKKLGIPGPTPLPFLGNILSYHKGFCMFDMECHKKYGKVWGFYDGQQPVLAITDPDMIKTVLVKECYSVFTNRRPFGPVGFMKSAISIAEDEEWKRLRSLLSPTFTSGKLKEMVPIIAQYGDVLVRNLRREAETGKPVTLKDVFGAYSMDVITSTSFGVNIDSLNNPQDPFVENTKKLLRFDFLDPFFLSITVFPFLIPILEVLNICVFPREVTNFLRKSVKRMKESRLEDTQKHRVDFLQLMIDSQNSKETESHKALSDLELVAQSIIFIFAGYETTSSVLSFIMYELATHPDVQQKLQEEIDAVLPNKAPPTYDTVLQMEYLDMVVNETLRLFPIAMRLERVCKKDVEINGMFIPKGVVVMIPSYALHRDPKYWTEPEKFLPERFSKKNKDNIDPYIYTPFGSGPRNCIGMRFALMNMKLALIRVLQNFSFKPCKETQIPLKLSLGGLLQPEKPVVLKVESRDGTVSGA

[6] = Liver microsome stability, human; conditions: for CLint scaled at 1 μM / microsomal CLint at 1 μM / half-life at 1 μM: liver microsomes; for CLint scaled at 1 μM: Scale-up CLint; for microsomal CLint at 1 μM: in vitro CLint; for half-life at 1 μM: in vitro t1/2, human liver microsomes
Protocol: as §1, §2

[7] = molecular target: M4 (h) (antagonist radioligand) (Homo sapiens, UniProt P08173); conditions: at the tested concentration; negative values set to zero
Chain of M4 (h) (antagonist radioligand) (P08173 whole entry): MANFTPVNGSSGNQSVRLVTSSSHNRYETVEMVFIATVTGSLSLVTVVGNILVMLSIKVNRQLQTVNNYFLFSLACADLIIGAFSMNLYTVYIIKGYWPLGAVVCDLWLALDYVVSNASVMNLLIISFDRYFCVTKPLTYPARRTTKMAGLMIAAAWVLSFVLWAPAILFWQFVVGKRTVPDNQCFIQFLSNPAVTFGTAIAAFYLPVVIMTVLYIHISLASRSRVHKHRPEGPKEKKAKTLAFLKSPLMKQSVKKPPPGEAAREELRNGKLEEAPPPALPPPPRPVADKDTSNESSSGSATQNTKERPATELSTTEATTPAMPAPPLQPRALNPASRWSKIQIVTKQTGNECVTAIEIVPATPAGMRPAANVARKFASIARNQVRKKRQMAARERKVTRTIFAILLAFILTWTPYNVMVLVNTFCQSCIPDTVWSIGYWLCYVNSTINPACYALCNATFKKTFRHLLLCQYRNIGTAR

[8] = molecular target: CYP2C19 (Homo sapiens, UniProt P33261); assay: Incubation with recombinant CYP2C19
Chain of CYP2C19 (P33261 whole entry): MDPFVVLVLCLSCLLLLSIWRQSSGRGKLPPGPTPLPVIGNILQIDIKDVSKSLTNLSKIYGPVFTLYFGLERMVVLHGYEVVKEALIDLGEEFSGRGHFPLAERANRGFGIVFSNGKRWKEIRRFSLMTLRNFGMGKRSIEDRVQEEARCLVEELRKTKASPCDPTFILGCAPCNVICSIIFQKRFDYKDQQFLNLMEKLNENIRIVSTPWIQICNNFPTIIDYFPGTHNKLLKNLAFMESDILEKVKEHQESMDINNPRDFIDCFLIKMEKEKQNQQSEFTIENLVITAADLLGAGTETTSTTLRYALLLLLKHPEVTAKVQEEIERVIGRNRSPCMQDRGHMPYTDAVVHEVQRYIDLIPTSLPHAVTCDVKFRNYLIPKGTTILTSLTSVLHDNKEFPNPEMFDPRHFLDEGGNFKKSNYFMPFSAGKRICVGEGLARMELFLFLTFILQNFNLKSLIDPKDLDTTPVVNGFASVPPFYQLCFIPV

[9] = molecular target: CYP2D6 (Homo sapiens, UniProt P10635); assay: Incubation with recombinant CYP2D6
Chain of CYP2D6 (P10635 whole entry): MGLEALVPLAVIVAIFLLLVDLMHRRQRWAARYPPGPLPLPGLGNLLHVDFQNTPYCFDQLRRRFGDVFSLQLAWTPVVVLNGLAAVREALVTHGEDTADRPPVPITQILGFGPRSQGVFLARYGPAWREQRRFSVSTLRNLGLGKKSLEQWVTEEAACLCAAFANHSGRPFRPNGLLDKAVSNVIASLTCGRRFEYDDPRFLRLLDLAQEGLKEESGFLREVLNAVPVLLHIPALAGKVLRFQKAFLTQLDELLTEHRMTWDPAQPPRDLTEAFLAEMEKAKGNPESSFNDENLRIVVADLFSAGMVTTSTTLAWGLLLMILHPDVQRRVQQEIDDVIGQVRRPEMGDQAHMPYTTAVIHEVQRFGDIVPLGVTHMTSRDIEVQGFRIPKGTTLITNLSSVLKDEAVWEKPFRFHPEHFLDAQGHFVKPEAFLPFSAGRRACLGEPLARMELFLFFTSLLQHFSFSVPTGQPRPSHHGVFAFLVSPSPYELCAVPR

[10] = molecular target: CYP2E1 (Homo sapiens, UniProt P05181); assay: Incubation with recombinant CYP2E1; conditions: for t1/2: unit not given
Chain of CYP2E1 (P05181 whole entry): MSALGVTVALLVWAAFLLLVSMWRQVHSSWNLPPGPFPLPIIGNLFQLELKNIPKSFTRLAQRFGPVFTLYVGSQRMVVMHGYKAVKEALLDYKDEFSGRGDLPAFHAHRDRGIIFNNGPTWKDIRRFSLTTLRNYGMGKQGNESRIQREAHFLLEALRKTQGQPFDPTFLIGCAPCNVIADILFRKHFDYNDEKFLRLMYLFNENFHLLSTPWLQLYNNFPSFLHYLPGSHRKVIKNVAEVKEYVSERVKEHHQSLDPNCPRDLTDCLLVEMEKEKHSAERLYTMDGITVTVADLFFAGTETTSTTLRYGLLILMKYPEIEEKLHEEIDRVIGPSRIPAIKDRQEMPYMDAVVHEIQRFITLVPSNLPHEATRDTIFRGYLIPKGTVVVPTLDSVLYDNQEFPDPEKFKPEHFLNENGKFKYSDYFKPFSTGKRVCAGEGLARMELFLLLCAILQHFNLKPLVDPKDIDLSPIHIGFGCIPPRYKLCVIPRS

[11] = Whole blood stability, dog
Protocol: Procedures for blood Stability. • A. 398 μL of blood from each species was added to an incubation plate, which was pre-warmed at 37C for 15 minutes. • B. After the pre-incubation, 2 μL of working solution (test compounds or control compounds) was spiked to 398 μL of blood to reach a final concentration of 1 μM for test compounds and 5 μM for control compounds. The final concentration of organic solvents is 0.5%. The assays were performed in duplicate. • C. The reaction samples were incubated at 37C. • D. Aliquots of 50 μL were taken from the reaction samples at 0, 15, 30, 60 and 120 minutes. The reaction was stopped by the addition of 50 μL ultrapure water and 400 μL cold acetonitrile. • E. All samples were vortexed for 10 minutes, followed by centrifugation at 3,220 g for 40 minutes to precipitate proteins. 100 μL of the supernatant was then transferred to a new plate. The supernatant was diluted with ultrapure water as needed for detection by LC-MS/MS. Sample Analysis
Samples were analyzed by LC-MS/MS to measure the concentration of the test compounds.
as §4

[12] = Hepatocyte stability, dog
Protocol: as §3, §4

[13] = test system: Cerep87 Safety Panel receptors; assay: Cerep87 Safety Panel (Eurofins), whole panel statements; type: binding
[14] = dog, dog liver microsomes, Example 15, Table 20
[15] = rat, rat liver microsomes, Example 15, Table 20
[16] = human, human liver microsomes, Example 15, Table 20

Compound | CLint scaled at 1 μM [1, 14] [mL/min/kg] | microsomal CLint at 1 μM [1, 14] [µL/min/mg] | half-life at 1 μM ([1]; dog, Example 15, Table 20) [min] | CLint scaled at 1 μM [2, 15] [mL/min/kg] | microsomal CLint at 1 μM [2, 15] [µL/min/mg] | half-life at 1 μM ([2]; rat, Example 15, Table 20) [min] | CLint [3] [µL/min/pmol] | t1/2 [3] | Substrates of CYP3A4 [5] | CLint scaled at 1 μM [6, 16] [mL/min/kg] | microsomal CLint at 1 μM [6, 16] [µL/min/mg] | half-life at 1 μM ([6]; human, Example 15, Table 20) [min] | signal, M4 (h) (antagonist radioligand) [7] [%] | Substrates of CYP2C19 [8] | Substrates of CYP2D6 [9] | CLint [10] [µL/min/pmol] | t1/2 [10] | Remaining Percentages (%) 0 min ([11]; dog whole blood, 37C) [%] | also measured
O[C@@](CCN1CCCCC1)(c1ccccc1)C1CCCCC1 [(R)-THP, (R)-trihexyphenidyl] | 318 | 180 | 7.69 | 5330 | 2190 | 0.63 | 0.00 | ∞ | Rac, R and S | 20.4 | 19.9 | 69.7 | 98.88 | Rac, R and S | Rac, R and S | 0.00 | ∞ | 100.00 | CLint scaled at 1 μM ([1]; dog, dog liver microsomes, Table 5): 257 mL/min/kg; microsomal CLint at 1 μM ([1]; dog, dog liver microsomes, with NADPH, Table 5): 146 µL/min/mg; half-life at 1 μM ([1]; dog, with NADPH, 1 μM, Table 5): 9.51 min; CLint scaled at 1 μM ([2]; rat, rat liver microsomes, Table 5): 5810 mL/min/kg; microsomal CLint at 1 μM ([2]; rat, rat liver microsomes, with NADPH, Table 5): 2380 µL/min/mg; half-life at 1 μM ([2]; rat, with NADPH, 1 μM, Table 5): 0.58 min; CLint scaled at 1 μM ([4]; cryopreserved hepatocytes): 4420 mL/min/kg; half-life at 1 μM ([4]; cryopreserved hepatocytes): 1.47 min; hepatocyte CLint at 1 μM ([4]; cryopreserved hepatocytes): 945 µL/min/1e6 cells; half-life ([5]; human): 30.7 min; CLint scaled at 1 μM ([6]; human, human liver microsomes, Table 5): 21.8 mL/min/kg; microsomal CLint at 1 μM ([6]; human, human liver microsomes, with NADPH, Table 5): 21.2 µL/min/mg; half-life at 1 μM ([6]; human, with NADPH, 1 μM, Table 5): 65.8 min; t1/2 ([11]; dog whole blood, 37C): ∞; CLint scaled at 1 μM ([12]; cryopreserved hepatocytes): 187 mL/min/kg; half-life at 1 μM ([12]; cryopreserved hepatocytes): 40.2 min; hepatocyte CLint at 1 μM ([12]; cryopreserved hepatocytes): 34.5 µL/min/1e6 cells
C[C@@H](C[N+](C)(C)C)OC(N)=O.[Cl-] [(S)-BTC, (S)-bethanechol] |  |  |  |  |  |  |  |  |  |  |  |  |  |  |  |  |  | 100.00 | Predicted Hepatic CLH ([1]; dog liver microsomes, Table 5): 0.00 mL/min/kg; in vitro t1/2 ([1]; dog, microsomes): ∞; Predicted Hepatic CLH ([2]; rat liver microsomes, Table 5): 0.00 mL/min/kg; in vitro t1/2 ([2]; rat, microsomes): ∞; antagonism at muscarinic receptors of the panel ([13]; only muscarinic receptors): greater than 50%; Predicted Hepatic CLH ([4]; hepatocytes): 0 mL/min/kg; in vitro t1/2 ([4]; hepatocytes): ∞; Predicted Hepatic CLH ([6]; human liver microsomes, Table 5): 0.00 mL/min/kg; in vitro t1/2 ([6]; human, microsomes): ∞; t1/2 ([11]; dog, blood): ∞; Predicted Hepatic CLH ([12]; hepatocytes): 0 mL/min/kg; in vitro t1/2 ([12]; hepatocytes): ∞
O[C@](CCN1CCCCC1)(c1ccccc1)C1CCCCC1 [(S)-THP, (S)-trihexyphenidyl] | 429 | 244 | 5.72 | 1870 | 768 | 1.8 | 0.00 | ∞ | Rac, R and S | 58.9 | 57.3 | 24.2 | 97.82 | Rac, R and S | Rac, R and S | 0.00 | ∞ |  | non-muscarinic receptors signaled through ([13]; greater than 25% signal): nine
